Results published in patent US10799530B1, “Composition and method for the prevention and treatment of obesity” (Vector Vitale IP LLC, priority 2019, dated 2020).
Where “and” joins values, the source holds several entries; their conditions need not be identical. Equal entries are not always repeated.

Tests used:
Assay type in all cases: in vivo
rats [1] = experiment: Serum insulin level after intraperitoneal administration; details: intact rats; 3750 μg of zinc per 1 kg intraperitoneally every other day, 7 injections
Method: Animals are placed in cages, 4 per cage, with free access to food/water. […] Administration is performed every other day, in the amount of 7 injections per animal (intraperitoneal method of drug administration).
Samples in volume of 100 μl were incubated in microplate wells at 4° C. overnight. […] Non-specific binding sites were blocked with a 5% fat-free milk blocking solution and incubated for 1 hour at 37° C. After washing, the separate wells of the microplate were loaded with primary rabbit anti-insulin antibodies and incubated for 1 hour at 37° C. After incubation, the microplate wells were washed and loaded with appropriate secondary antibodies conjugated to horseradish peroxidase and incubated for another 1 hour at 37° C. […] The optical density was measured at 492 nm. The insulin concentrations were calculated using the calibration curve generated under the given conditions and human insulin of known concentration.)

rats [2] = experiment: Glucose tolerance test; details: fast overnight, one value per animal
Method: A glucose tolerance test was performed to determine a potential effect of zinc isotope on the dynamics of glucose concentration in the blood flow. Experimental procedure: laboratory animals are given intragastric injections of either normal saline solution or zinc in saline solution (5 mg/kg) in a volume of 2 ml. After that, 60 minutes after the aforementioned injections, the basal level of glucose is measured and a glucose solution is injected in an amount of 3 g/kg in a volume of 2 ml using the same route of administration. The blood glucose levels are measured again 60 minutes after injecting the glucose solution.

rats [3] = experiment: Area of islets of Langerhans after intraperitoneal administration; details: intact rats, day 7 after the last administration
Method: Animals are placed in cages, 4 per cage, with free access to food/water. […] Administration is performed every other day, in the amount of 7 injections per animal (intraperitoneal method of drug administration). The dose of the drug injected to each animal was calculated on the basis of the ratio: 3750 μg of zinc per 1 kg of animal body weight.

rats [4] = experiment: Body weight, food and water consumption after intraperitoneal administration; details: intact rats; 3750 μg of zinc per 1 kg intraperitoneally every other day, 7 injections
Method: The current dose was calculated by zinc.

Row | Compound | Serum insulin levels at day 7 after the withdrawal (rats [1]) | Serum insulin levels on the first day after the drug withdrawal (rats [1]) | Glucose tolerance test, 60 min (1 h after glucose administration) (rats [2]; effector dose 5 mg/kg in 2 ml, glucose 3 g/kg body weight in 2 ml) | Glucose tolerance test, 0 min (1 h after effector administration) (rats [2]; effector dose 5 mg/kg in a volume of 2 ml) | Area of islets of Langerhans compared to the control group and the zinc acetate group (rats [3]) | Body weight of rats (rats [4])
1 | CC(=O)[O-].CC(=O)[O-].[Zn+2] [Zn acetate, Zinc acetate, reference compound] | drop in the insulin levels to the value of those of intact/control animals | significant increase | also dropped, though not so strongly and 7.2 and 6.9 and 7.3 and 6.8 | 4.6 and 5.2 (2×) and 4.9 and 5.1 | – | –
2 | zinc asparaginate [^64Zne] | significant increase in the insulin levels | slightly higher than in the group of intact animals | – | – | significant increase in the islet area | significant increase in the body weight
